Legend:
[1] = Trough concentration in po dosed human at 200 mg daily for 3 days followed by weekly dose of 200 mg for 6 months after 16 weeks; format: ADME, organism-based; details: in vivo, read-out: Cmin
[2] = Clast in po dosed human receiving 1000 mg cumulative dose and reporting drug-associated abdominal pain on day 20 at 200 mg daily for 3 days followed by weekly dose of 200 mg for 6 months; format: ADME, organism-based, Abdomen; details: in vivo, read-out: Clast
[3] = Half life po dosed human receiving 1000 mg cumulative dose and reporting drug-associated vomiting and/or nausea on day 3 at 200 mg daily for 3 days followed by weekly dose of 200 mg for 6 months; format: ADME, organism-based; details: in vivo
[4] = Apparent clearance with respect to the bioavailability po dosed human receiving 1000 mg cumulative dose and reporting drug-associated abdominal pain on day 20 at 200 mg daily for 3 days followed by weekly dose of 200 mg for 6 months; format: ADME, organism-based, Abdomen; details: in vivo
[5] = Apparent volume of distribution with respect to bioavailability in po dosed human at 200 mg daily for 3 days followed by weekly dose of 200 mg for 6 months; format: ADME, organism-based; details: in vivo, read-out: Vc/F
[6] = Tmax in fasted human; format: ADME, organism-based; details: in vivo
[7] = Clast in po dosed human […] and reporting drug-associated hyperesthesia on day 12 dosed at 200 mg daily for 3 days followed by weekly dose of 200 mg for 6 months; format: ADME, organism-based; details: in vivo, read-out: Clast
[8] = Apparent volume of distribution with respect to the bioavailability in po dosed human receiving 400 mg cumulative dose and reporting drug-associated diarrhea and/or abdominal pain on day 2 at 200 mg daily for 3 days followed by weekly dose of 200 mg for 6 months; format: ADME, organism-based, Abdomen; details: in vivo, read-out: Vc/F
[9] = Clast in po dosed human receiving 600 mg cumulative dose and reporting drug-associated vomiting and/or nausea reported on day 3 at 200 mg daily for 3 days followed by weekly dose of 200 mg for 6 months; format: ADME, organism-based; details: in vivo, read-out: Clast
[10] = Apparent clearance with respect to the bioavailability in human at 600 mg cumulative dose with vomiting and/or nausea reported on day 3 at 200 mg daily for 3 days followed by weekly dose of 200 mg for 6 months, po; format: ADME, organism-based; details: in vivo
[11] = Apparent volume of distribution with respect to the bioavailability in po dosed human receiving 1000 mg cumulative dose and reporting drug-associated depression on day 24 at 200 mg daily for 3 days followed by weekly dose of 200 mg for 6 months; format: ADME, organism-based; details: in vivo, read-out: Vc/F
[12] = Apparent clearance with respect to the bioavailability po dosed human receiving 200 mg cumulative dose and reporting drug-associated insomnia reported on day 1 at 200 mg daily for 3 days followed by weekly dose of 200 mg for 6 months; format: ADME, organism-based; details: in vivo
[13] = Half life po dosed human receiving 1000 mg cumulative dose and reporting drug-associated abdominal pain on day 20 at 200 mg daily for 3 days followed by weekly dose of 200 mg for 6 months; format: ADME, organism-based, Abdomen; details: in vivo
[14] = Apparent volume of distribution with respect to the bioavailability in po dosed human receiving 800 mg cumulative dose and reporting drug-associated hyperesthesia on day 12 at 200 mg daily for 3 days followed by weekly dose of 200 mg for 6 months; format: ADME, organism-based; details: in vivo, read-out: Vc/F
[15] = Half life po dosed human receiving 800 mg cumulative dose and reporting drug-associated hyperesthesia on day 12 at 200 mg daily for 3 days followed by weekly dose of 200 mg for 6 months; format: ADME, organism-based; details: in vivo
[16] = Apparent volume of distribution with respect to the bioavailability in po dosed human receiving 600 mg cumulative dose and reporting drug-associated vomiting and/or nausea on day 3 at 200 mg daily for 3 days followed by weekly dose of 200 mg for 6 months; format: ADME, organism-based; details: in vivo, read-out: Vc/F
[17] = Clast in po dosed human receiving 1000 mg cumulative dose and reporting drug-associated depression reported on day 24 at 200 mg daily for 3 days followed by weekly dose of 200 mg for 6 months; format: ADME, organism-based; details: in vivo, read-out: Clast
[18] = Trough concentration in po dosed human at 200 mg daily for 3 days followed by weekly dose of 200 mg for 6 months after 8 weeks; format: ADME, organism-based; details: in vivo, read-out: Cmin
[19] = Apparent volume of distribution with respect to the bioavailability in po dosed human receiving 1000 mg cumulative dose and reporting drug-associated abdominal pain on day 20 at 200 mg daily for 3 days followed by weekly dose of 200 mg for 6 months; format: ADME, organism-based, Abdomen; details: in vivo, read-out: Vc/F
[20] = Apparent volume of distribution with respect to the bioavailability in po dosed human receiving 400 mg cumulative dose and reporting drug-associated insomnia on day 1 at 200 mg daily for 3 days followed by weekly dose of 200 mg for 6 months; format: ADME, organism-based; details: in vivo, read-out: Vc/F
[21] = Apparent clearance with respect to the bioavailability po dosed human receiving 800 mg cumulative dose and reporting drug-associated with hyperesthesia on day 12 at 200 mg daily for 3 days followed by weekly dose of 200 mg for 6 months; format: ADME, organism-based; details: in vivo
[22] = Half life po dosed human receiving 1000 mg cumulative dose and reporting drug-associated depression on day 24 at 200 mg daily for 3 days followed by weekly dose of 200 mg for 6 months; format: ADME, organism-based; details: in vivo
[23] = Half life po dosed human receiving 200 mg cumulative dose and reporting drug-associated insomnia on day 1 at 200 mg daily for 3 days followed by weekly dose of 200 mg for 6 months; format: ADME, organism-based; details: in vivo
[24] = Apparent clearance with respect to the bioavailability po dosed human receiving 400 mg cumulative dose and reporting drug-associated diarrhea and/or abdominal pain on day 2 at 200 mg daily for 3 days followed by weekly dose of 200 mg for 6 months; format: ADME, organism-based, Abdomen; details: in vivo
[25] = Half life po dosed human receiving 400 mg cumulative dose and reporting drug-associated diarrhea and/or abdominal pain on day 2 at 200 mg daily for 3 days followed by weekly dose of 200 mg for 6 months; format: ADME, organism-based, Abdomen; details: in vivo
[26] = Apparent clearance with respect to the bioavailability po dosed human receiving 1000 mg cumulative dose and reporting drug-associated depression on day 24 at 200 mg daily for 3 days followed by weekly dose of 200 mg for 6 months; format: ADME, organism-based; details: in vivo
[27] = Half life in po dosed human at 200 mg daily for 3 days followed by weekly dose of 200 mg for 6 months; format: ADME, organism-based; details: in vivo
[28] = Trough concentration in po dosed human at 200 mg daily for 3 days followed by weekly dose of 200 mg for 6 months after 4 weeks; format: ADME, organism-based; details: in vivo, read-out: Cmin
[29] = Tmax in human administered with standard high-fat meal; format: ADME, organism-based; details: in vivo
[30] = Apparent clearance with respect to bioavailability in po dosed human at 200 mg daily for 3 days followed by weekly dose of 200 mg for 6 months; format: ADME, organism-based; details: in vivo

concentration at 2688 h [1]: 221 ng/mL | concentration at 72 h [2]: 253 ng/mL | half-life [3]: 9.8 days | CL/F [4]: 0.883 mL/min/kg | Vd/F [5]: 1900 L | Tmax [6]: 0.775 days | concentration at 72 h [7]: 283 ng/mL | Vd/F [8]: 24.4 L/kg | concentration at 72 h [9]: 315 ng/mL | CL/F [10]: 1.28 mL/min/kg | Vd/F [11]: 25.1 L/kg | CL/F [12]: 0.983 mL/min/kg | half-life [13]: 15.1 days | Vd/F [14]: 20.7 L/kg | half-life [15]: 13.1 days | Vd/F [16]: 26.1 L/kg | concentration at 72 h [17]: 275 ng/mL | concentration at 1344 h [18]: 221 ng/mL | Vd/F [19]: 27.8 L/kg | Vd/F [20]: 23.2 L/kg | CL/F [21]: 0.767 mL/min/kg | half-life [22]: 12 days | half-life [23]: 11.3 days | CL/F [24]: 0.983 mL/min/kg | half-life [25]: 12 days | CL/F [26]: 1.02 mL/min/kg | half-life [27]: 12.7 days | concentration at 672 h [28]: 221 ng/mL | Tmax [29]: 1.1 days | CL/F [30]: 72.8 mL/min
Structure (SMILES): COc1cc(C)c2c(Oc3cccc(C(F)(F)F)c3)c(OC)cc(NC(C)CCCN)c2n1 (stereo not given) [TAFENOQUINE]

Reference: ChEMBL document CHEMBL1155159, “Population pharmacokinetics of tafenoquine during malaria prophylaxis in healthy subjects” (Antimicrob Agents Chemother, 2007)
